Test results taken from patent US9133207B2, “Tetrandrine derivatives with substituted 5-carbon, preparation method and use thereof” (Hangzhou Bensheng Pharmaceutical Co., Ltd., priority 2011, dated 2015).
Converted amounts (≈) assume the structure as drawn.

Assays:
[1] = system: RKO (human colon adenocarcinoma cell); assay: Solid tumor cell growth inhibition, MTT, 72 h (Example 7); assay type: cell-based; conditions: Homo sapiens; 72 h, MTT, RKO
Outline: (§1)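 4000 cells/well in DMEM high glucose with 10% FBS pre-cultured 24 h at 37 °C, 5% CO2, then exposed to tetrandrine derivatives at various concentrations for 72 h. Viability measured by MTT, expressed as % of untreated control.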

[2] = system: SK-OV-3 (ovarian cancer cell); assay: as above; assay type: cell-based; conditions: Homo sapiens
Outline: as §1

[3] = system: Huh7 (human liver cancer cell); assay: as above; assay type: cell-based; conditions: Homo sapiens; 72 h, MTT, Huh-7
Outline: as §1

A549 (human lung cancer) = assay: as above; assay type: cell-based; conditions: Homo sapiens; 72 h, MTT, A549
Outline: as §1

[4] = system: CNE (nasopharyngeal carcinoma cell); assay: as above; assay type: cell-based; conditions: Homo sapiens
Outline: as §1

[5] = system: Hela (human cervical cancer cell); assay: as above; assay type: cell-based; conditions: Homo sapiens; 72 h, MTT, Hela
Outline: as §1

[6] = system: U87 MG (malignant glioma cell); assay: as above; assay type: cell-based; conditions: Homo sapiens, U-87 MG
Outline: as §1

[7] = system: MGC 803 (human gastric cancer cell); assay: as above; assay type: cell-based; conditions: Homo sapiens
Outline: as §1

[8] = system: Becap37 (human breast cancer cell); assay: as above; assay type: cell-based; conditions: Homo sapiens; 72 h, MTT, Becap-37
Outline: as §1

[9] = system: RPMI8226 (multiple myeloma); assay: Multiple myeloma cell growth inhibition, MTT, 72 h (Example 6); assay type: cell-based, human; conditions: Homo sapiens, RPMI-8226; 72 h, MTT, RPMI8226
Outline: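 RPMI8226 cells (6000 per well) in RPMI 1640 with 10% FBS were exposed to a range of tetrandrine derivative concentrations for 72 h at 37 °C under 5% CO2. Viable cell concentration was then measured by MTT.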

[10] = system: H9 (acute lymphoblastic leukemia, ALL); assay: Leukemia cell growth inhibition, MTT, 72 h (Example 5); assay type: cell-based, human; conditions: Homo sapiens; 72 h, MTT
Outline: (§2)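 6000 cells/well in RPMI 1640 with 10% FBS exposed to graded derivative concentrations for 72 h at 37 °C, 5% CO2. Viable cell concentration then measured by MTT.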

[11] = system: Jurkat (acute lymphoblastic leukemia, ALL); assay: as above; assay type: cell-based, human; conditions: Homo sapiens, Jurkat; 72 h, MTT
Outline: as §2

[12] = system: K562/adr (drug-resistant, chronic myeloid leukemia, CML); assay: as above; assay type: cell-based, human; conditions: Homo sapiens, K562/Adr; 72 h, MTT
Outline: as §2

[13] = system: Kasumi-1 (acute myeloid leukemia M2 type, AML-M2); assay: as above; assay type: cell-based, human; conditions: Homo sapiens, Kasumi 1
Outline: as §2

[14] = system: NB4 (acute promyelocytic leukemia, AML); assay: as above; assay type: cell-based, human; conditions: Homo sapiens; 72 h, MTT
Outline: as §2

[15] = system: PANC-1 (pancreatic cancer); assay: Solid tumor cell growth inhibition, MTT, 72 h (Example 7); assay type: cell-based, human; conditions: Homo sapiens; 72 h, MTT, PANC-1
Outline: as §1

PC-3 (prostate cancer) = assay: as above; assay type: cell-based, human; conditions: Homo sapiens; 72 h, MTT, PC-3
Outline: as §1

[16] = system: CaES-17 (esophageal cancer cell); assay: as above; assay type: cell-based, human; conditions: Homo sapiens, CaEs17; 72 h, MTT, CAES-17
Outline: as §1

[17] = system: Hep-2 (laryngeal carcinoma); assay: as above; assay type: cell-based, human; conditions: Homo sapiens; 72 h, MTT, Hep 2
Outline: as §1

MG63 (osteosarcoma) = assay: as above; assay type: cell-based, human; conditions: Homo sapiens; 72 h, MTT, MG-63
Outline: as §1

Row | Structure (SMILES) | IC50 [1] [µg/mL] | IC90 [1] [µg/mL] | IC50 [2] [µg/mL] | IC90 [2] [µg/mL] | IC50 [3] [µg/mL] | IC90 [3] [µg/mL] | IC50 (A549 (human lung cancer)) [µg/mL] | IC90 (A549 (human lung cancer)) [µg/mL] | IC50 [4] [µg/mL] | IC90 [4] [µg/mL] | IC50 [5] [µg/mL] | IC90 [5] [µg/mL] | IC50 [6] [µg/mL] | IC90 [6] [µg/mL] | IC50 [7] [µg/mL] | IC90 [7] [µg/mL] | IC50 [8] [µg/mL] | IC90 [8] [µg/mL] | IC50 [9] [µg/mL] | IC90 [9] [µg/mL] | also measured
1 | COc1ccc2cc1Oc1ccc(cc1)C[C@H]1c3cc(c(OC)cc3CCN1C)Oc1c(OC)c(OC)c(COC(=O)c3cccs3)c3c1[C@H](C2)N(C)CC3 [BS-TE-215] | 6.04 (≈ 7.92 µM) | 9.22 (≈ 12.1 µM) | 7.5 (≈ 9.83 µM) | > 16 | 3.54 (≈ 4.64 µM) | 9.62 (≈ 12.6 µM) | 11.9 (≈ 15.6 µM) | > 16 | 6.97 (≈ 9.14 µM) | 12.2 (≈ 16 µM) | 6.52 (≈ 8.55 µM) | 13 (≈ 17.1 µM) | 3.14 (≈ 4.12 µM) | 8 (≈ 10.5 µM) | 5.78 (≈ 7.58 µM) | 8 (≈ 10.5 µM) | 8.3 (≈ 10.9 µM) | 15 (≈ 19.7 µM) | 0.87 (≈ 1.14 µM) | 5.13 (≈ 6.72 µM) | IC50 [10]: 4.86 µg/mL (≈ 6.37 µM); IC90 [10]: 7.6 µg/mL (≈ 9.96 µM); IC50 [11]: 4.64 µg/mL (≈ 6.08 µM); IC90 [11]: 10.9 µg/mL (≈ 14.3 µM); IC50 [12]: 2.18 µg/mL (≈ 2.86 µM); IC90 [12]: 8.89 µg/mL (≈ 11.7 µM); IC50 [13]: 4.92 µg/mL (≈ 6.45 µM); IC90 [13]: 15.5 µg/mL (≈ 20.3 µM); IC50 [14]: 2.6 µg/mL (≈ 3.41 µM); IC90 [14]: 4 µg/mL (≈ 5.24 µM); IC50 [15]: 5.11 µg/mL (≈ 6.7 µM); IC90 [15]: 15 µg/mL (≈ 19.7 µM); IC50 (PC-3 (prostate cancer)): 7.08 µg/mL (≈ 9.28 µM); IC90 (PC-3 (prostate cancer)): 9 µg/mL (≈ 11.8 µM); IC50 [16]: 8.69 µg/mL (≈ 11.4 µM); IC90 [16]: 27 µg/mL (≈ 35.4 µM); IC50 [17]: 9.9 µg/mL (≈ 13 µM); IC90 [17]: 22.2 µg/mL (≈ 29.1 µM); IC50 (MG63 (osteosarcoma)): 6.2 µg/mL (≈ 8.13 µM); IC90 (MG63 (osteosarcoma)): 10.4 µg/mL (≈ 13.6 µM)
2 | COc1ccc2cc1Oc1ccc(cc1)C[C@H]1c3cc(c(OC)cc3CCN1C)Oc1c(OC)c(OC)c(COC(=O)c3ccco3)c3c1[C@H](C2)N(C)CC3 [BS-TE-216] | 2.21 (≈ 2.96 µM) | 4.67 (≈ 6.25 µM) | 7 (≈ 9.37 µM) | > 16 | 2.66 (≈ 3.56 µM) | 4.71 (≈ 6.31 µM) | 8.6 (≈ 11.5 µM) | > 16 | 3.86 (≈ 5.17 µM) | 13.3 (≈ 17.8 µM) | 3.82 (≈ 5.11 µM) | 10.8 (≈ 14.4 µM) | 1.24 (≈ 1.66 µM) | 3.74 (≈ 5.01 µM) | 2.51 (≈ 3.36 µM) | 4 (≈ 5.36 µM) | 5.8 (≈ 7.77 µM) | 13 (≈ 17.4 µM) | 0.54 (≈ 0.723 µM) | 3.14 (≈ 4.2 µM) | IC50 [10]: 2.53 µg/mL (≈ 3.39 µM); IC90 [10]: 7.29 µg/mL (≈ 9.76 µM); IC50 [11]: 2.52 µg/mL (≈ 3.37 µM); IC90 [11]: 8.03 µg/mL (≈ 10.8 µM); IC50 [12]: 3.06 µg/mL (≈ 4.1 µM); IC90 [12]: 16 µg/mL (≈ 21.4 µM); IC50 [13]: 3.15 µg/mL (≈ 4.22 µM); IC90 [13]: 8.98 µg/mL (≈ 12 µM); IC50 [14]: 1.4 µg/mL (≈ 1.87 µM); IC90 [14]: 2 µg/mL (≈ 2.68 µM); IC50 [15]: 15.8 µg/mL (≈ 21.1 µM); IC90 [15]: > 16 µg/mL; IC50 (PC-3 (prostate cancer)): 4.11 µg/mL (≈ 5.5 µM); IC90 (PC-3 (prostate cancer)): 7.84 µg/mL (≈ 10.5 µM); IC50 [16]: 5.36 µg/mL (≈ 7.18 µM); IC90 [16]: 29.9 µg/mL (≈ 40 µM); IC50 [17]: 5.42 µg/mL (≈ 7.26 µM); IC90 [17]: 16 µg/mL (≈ 21.4 µM); IC50 (MG63 (osteosarcoma)): 4.5 µg/mL (≈ 6.03 µM); IC90 (MG63 (osteosarcoma)): 8.8 µg/mL (≈ 11.8 µM)
